Peptide text beside a SMILES is read from it.
Target: hMC4-R (Homo sapiens (Human), UniProt P32245)
Assay: Competitive inhibition binding assay using [I125]-NDP-α-MSH, hMC4-R membranes
Conditions: averaged; [I125]-NDP-α-MSH (values not marked *); read-out: MC4-R Ki
Description: A competitive inhibition binding assay is performed using membrane homogenates prepared from HEK-293 cells that express recombinant hMC4-R, hMC3-R, or hMC5-R, and from B-16 mouse melanoma cells (containing endogenous MC1-R). In some instances, HEK-293 cells that express recombinant hMC1-R were employed. In the examples that follow, all MC3-R, MC4-R and MC5-R values are for human recombinant receptors. […] Membrane homogenates were incubated with 0.2 nM (for hMC4-R) 0.4 nM (for MC3-R and MC5-R) or 0.1 nM (for mouse B16 MC1-R or hMC1-R) [I^125]-NDP-α-MSH (Perkin Elmer) and increasing concentrations of test peptides of the present invention in buffer containing 25 mM HEPES buffer (pH 7.5) with 100 mM NaCl, 2 mM CaCl2, 2 mM MgCl2, 0.3 mM 1,10-phenanthroline, and 0.2% bovine serum albumin. After incubation for 60 minutes at 37° C., the assay mixture was filtered and the membranes washed three times with ice-cold buffer. Filters were dried and counted in a gamma counter for bound radioactivity. […] Maximal specific binding (100%) was defined as the difference in radioactivity (cpm) bound to cell membranes in the absence and presence of 1 μM NDP-α-MSH. […] Each assay was conducted in triplicate and the actual mean values are described, with results less than 0% reported as 0%. Ki values for test peptides of the present invention were determined using Graph-Pad Prism® curve-fitting software.

Sequence of hMC4-R (P32245 whole entry): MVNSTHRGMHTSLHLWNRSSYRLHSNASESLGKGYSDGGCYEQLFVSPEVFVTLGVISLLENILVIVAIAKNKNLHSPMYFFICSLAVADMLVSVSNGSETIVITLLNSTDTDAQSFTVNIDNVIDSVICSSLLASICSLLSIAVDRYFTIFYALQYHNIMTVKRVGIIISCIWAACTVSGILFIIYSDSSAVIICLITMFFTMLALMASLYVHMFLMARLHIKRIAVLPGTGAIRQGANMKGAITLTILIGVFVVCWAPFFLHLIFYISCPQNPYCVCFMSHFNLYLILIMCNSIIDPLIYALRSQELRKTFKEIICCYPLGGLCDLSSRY

CC(=O)N[C@@H](CCCNC(=N)N)C(=O)N[C@H]1CCCNC(=O)CC[C@@H](C(N)=O)NC(=O)[C@H](Cc2c[nH]c3ccccc23)NC(=O)[C@H](CCCNC(=N)N)NC(=O)[C@@H](Cc2ccccc2)NC(=O)[C@H](Cc2c[nH]cn2)NC1=O [compound 75, Ac-Arg-cyclo(Orn-His- D-Phe-Arg-Trp-Glu)- NH2] (HELM PEPTIDE1{[ac].R.[Orn].H.[dF].R.W.E.[am]}$PEPTIDE1,PEPTIDE1,3:R3-8:R3$$$V2.0) was tested, and the Ki was 0.6 nM.
CC(=O)N[C@@H](CCCNC(=N)N)C(=O)N[C@H]1CC(=O)NCCCC[C@@H](C(N)=O)NC(=O)[C@H](Cc2c[nH]c3ccccc23)NC(=O)[C@H](CCCNC(=N)N)NC(=O)[C@@H](Cc2ccccc2)NC(=O)[C@@H]2C[C@@H](O)CN2C1=O [compound 79, Ac-Arg-cyclo(Asp-Hyp- D-Phe-Arg-Trp-Lys)- NH2] was tested, and the Ki was 4 nM.
In the case of CC(=O)N[C@@H](CCCNC(=N)N)C(=O)N[C@H]1CCC(=O)NCCC[C@@H](C(=O)O)NC(=O)[C@H](Cc2c[nH]c3ccccc23)NC(=O)[C@H](CCCNC(=N)N)NC(=O)[C@@H](Cc2ccccc2)NC(=O)[C@H](Cc2c[nH]cn2)NC1=O [compound 82, Ac-Arg-cyclo(Glu-His- D-Phe-Arg-Trp-Orn)- OH] (HELM PEPTIDE1{[ac].R.E.H.[dF].R.W.[Orn]}$PEPTIDE1,PEPTIDE1,3:R3-8:R3$$$V2.0), the Ki is reported as 4 nM.
With CC(=O)N[C@@H](CCCNC(=N)N)C(=O)N[C@H]1CCC(=O)NCCC[C@@H](C(=O)O)NC(=O)[C@H](Cc2c[nH]c3ccccc23)NC(=O)[C@H](CCCNC(=N)N)NC(=O)[C@@H](Cc2ccccc2)NC(=O)[C@H](CCCN)NC1=O [compound 90, Ac-Arg-cyclo(Glu-Orn- D-Phe-Arg-Trp-Orn)- OH] the Ki was 9 nM.
For N=C(N)NCCC[C@@H]1NC(=O)[C@@H](Cc2ccccc2)NC(=O)[C@H](Cc2c[nH]cn2)NC(=O)[C@@H](NC(=O)[C@@H](N)CCCNC(=N)N)CCCNC(=O)CC[C@@H](C(N)=O)NC(=O)[C@H](Cc2c[nH]c3ccccc23)NC1=O [compound 99, Arg-cyclo(Orn-His-D- Phe-Arg-Trp-Glu)-NH2] (HELM PEPTIDE1{R.[Orn].H.[dF].R.W.E.[am]}$PEPTIDE1,PEPTIDE1,2:R3-7:R3$$$V2.0), the Ki was 6 nM.
CC(=O)N[C@@H](CCCNC(=N)N)C(=O)N[C@H]1CCC(=O)NCCC[C@@H](C(N)=O)NC(=O)[C@H](Cc2c[nH]c3ccccc23)NC(=O)[C@H](CCCNC(=N)N)NC(=O)[C@@H](Cc2ccccc2)NC(=O)[C@H](CC[S+](C)[O-])NC1=O (stereo partly drawn) [compound 111, Ac-Arg-cyclo(Glu- Met(═O)-D-Phe-Arg- Trp-Orn)-NH2] was tested, and the Ki was 9 nM.
CC(=O)N[C@@H](CCCNC(=N)N)C(=O)N[C@H]1CC(=O)NCCCC[C@@H](C(N)=O)NC(=O)[C@H](Cc2c[nH]c3ccccc23)NC(=O)[C@H](CCCNC(=N)N)NC(=O)[C@@H](Cc2ccccc2)NC(=O)[C@H](CO)NC1=O [compound 117, Ac-Arg-cyclo(Asp-Ser- D-Phe-Cit-Trp-Lys)-NH2] showed a Ki of 1450 nM.
For CC(=O)N[C@@H](CCCNC(=N)N)C(=O)N[C@H]1CCCCNC(=O)C[C@@H](C(N)=O)NC(=O)[C@H](Cc2c[nH]c3ccccc23)NC(=O)[C@H](CCCNC(=N)N)NC(=O)[C@@H](Cc2ccccc2)NC(=O)[C@H](CCN)NC1=O [compound 121, Ac-Arg-cyclo(Lys-Dab- D-Phe-Arg-Trp-Asp)- NH2] (HELM PEPTIDE1{[ac].R.K.[Dab].[dF].R.W.D.[am]}$PEPTIDE1,PEPTIDE1,3:R3-8:R3$$$V2.0), the Ki was 0.4 nM.
Work on CC(=O)N[C@@H](CCCNC(=N)N)C(=O)N[C@H]1CC(=O)NCCCC[C@@H](C(=O)NC2CC2)NC(=O)[C@H](Cc2c[nH]c3ccccc23)NC(=O)[C@H](CCCNC(=N)N)NC(=O)[C@@H](Cc2ccccc2)NC(=O)[C@H](CCN)NC1=O [compound 122, Ac-Arg-cyclo(Asp-Dab- D-Phe-Arg-Trp-Lys)- NH-cyclopropyl] yielded a Ki of 3 nM.
Work on CC(=O)N[C@@H](CCCNC(=N)N)C(=O)N[C@H]1CCCCNC(=O)C[C@@H](C(=O)O)NC(=O)[C@H](Cc2c[nH]c3ccccc23)NC(=O)[C@H](CCCNC(=N)N)NC(=O)[C@@H](Cc2ccccc2)NC(=O)[C@H](CCN)NC1=O [compound 131, Ac-Arg-cyclo(Lys-Dab- D-Phe-Arg-Trp-Asp)- OH] (HELM PEPTIDE1{[ac].R.K.[Dab].[dF].R.W.D}$PEPTIDE1,PEPTIDE1,3:R3-8:R3$$$V2.0) yielded a Ki of 35 nM.
In the case of CC(=O)N[C@@H](CCCNC(=N)N)C(=O)N[C@H]1CCNC(=O)CCC[C@@H](C(=O)O)NC(=O)[C@H](Cc2c[nH]c3ccccc23)NC(=O)[C@H](CCCNC(=N)N)NC(=O)[C@@H](Cc2ccccc2)NC(=O)[C@H](CCN)NC1=O [compound 136, Ac-Arg-cyclo(Dab-Dab- D-Phe-Arg-Trp-hGlu)- OH], the Ki is reported as 35 nM.
Molecule N=C(N)NCCC[C@H](NC(=O)CC1CCCCC1)C(=O)N[C@H]1CC(=O)NCCCC[C@@H](C(N)=O)NC(=O)[C@H](Cc2c[nH]c3ccccc23)NC(=O)[C@H](CCCNC(=N)N)NC(=O)[C@@H](Cc2ccccc2)NC(=O)[C@H](CCN)NC1=O [compound 139, Cyclohexylacetyl-Arg- cyclo(Asp-Dab-D-Phe- Arg-Trp-Lys)-NH2] has a Ki of 1 nM.
With N=C(N)NCCC[C@H](NC(=O)Cc1ccccc1)C(=O)N[C@H]1CC(=O)NCCCC[C@@H](C(N)=O)NC(=O)[C@H](Cc2c[nH]c3ccccc23)NC(=O)[C@H](CCCNC(=N)N)NC(=O)[C@@H](Cc2ccccc2)NC(=O)[C@H](CCN)NC1=O [compound 140, Phenylacetyl-Arg- cyclo(Asp-Dab-D-Phe- Arg-Trp-Lys)-NH2] the Ki was 2 nM.
In the case of CC(=O)N[C@@H](CCCNC(N)=O)C(=O)N[C@H]1CC(=O)NCCCC[C@@H](C(N)=O)NC(=O)[C@H](Cc2c[nH]c3ccccc23)NC(=O)[C@H](CCCNC(=N)N)NC(=O)[C@@H](Cc2ccccc2)NC(=O)[C@H](CCN)NC1=O [compound 141, Ac-Cit-cyclo(Asp-Dab- D-Phe-Arg-Trp-Lys)- NH2], the Ki is reported as 9 nM.
CC(=O)N[C@@H](CCC(N)=O)C(=O)N[C@H]1CC(=O)NCCCC[C@@H](C(N)=O)NC(=O)[C@H](Cc2c[nH]c3ccccc23)NC(=O)[C@H](CCCNC(=N)N)NC(=O)[C@@H](Cc2ccccc2)NC(=O)[C@H](CCN)NC1=O [compound 142, Ac-Gln-cyclo(Asp-Dab- D-Phe-Arg-Trp-Lys)- NH2] (HELM PEPTIDE1{[ac].Q.D.[Dab].[dF].R.W.K.[am]}$PEPTIDE1,PEPTIDE1,3:R3-8:R3$$$V2.0) showed a Ki of 15 nM.
In the case of CC(=O)N[C@@H](CCCNC(=N)N)C(=O)N[C@H]1CCCC(=O)NCC[C@@H](C(=O)O)NC(=O)[C@H](Cc2c[nH]c3ccccc23)NC(=O)[C@H](CCCNC(=N)N)NC(=O)[C@@H](Cc2ccccc2)NC(=O)[C@H](CCN)NC1=O [compound 144, Ac-Arg-cyclo(hGlu-Dab- D-Phe-Arg-Trp-Dab)- OH], the Ki is reported as 45 nM.
Work on CC(=O)N[C@@H](CCCNC(=N)N)C(=O)N[C@H]1CCCC(=O)NCC[C@@H](C(N)=O)NC(=O)[C@H](Cc2c[nH]c3ccccc23)NC(=O)[C@H](CCCNC(=N)N)NC(=O)[C@@H](Cc2ccccc2)NC(=O)[C@H](CCS(C)(=O)=O)NC1=O [compound 145, Ac-Arg-cyclo(hGlu- Met(O2)-D-Phe-Arg- Trp-Dab)-NH2] (HELM PEPTIDE1{[ac].R.[O=C([C@H](CCCC(=O)[*:3])N[*:1])[*:2]].[CS(=O)(=O)CC[C@H](N[*:1])C(=O)[*:2]].[dF].R.W.[Dab].[am]}$PEPTIDE1,PEPTIDE1,3:R3-8:R3$$$V2.0) yielded a Ki of 4 nM.
In the case of CC(=O)N[C@@H](CCCNC(=N)N)C(=O)N[C@H]1CCCC(=O)NCC[C@@H](C(N)=O)NC(=O)[C@H](Cc2c[nH]c3ccccc23)NC(=O)[C@H](CCCNC(=N)N)NC(=O)[C@@H](Cc2ccccc2)NC(=O)[C@H](CCC(N)=O)NC1=O [compound 147, Ac-Arg-cyclo(hGlu-Gln- D-Phe-Arg-Trp-Dab)- NH2], the Ki is reported as 20 nM.
In the case of CC(=O)N[C@@H](CCCNC(=N)N)C(=O)N[C@H]1CCCCNC(=O)C[C@@H](C(N)=O)NC(=O)[C@H](Cc2c[nH]c3ccccc23)NC(=O)[C@H](CCCNC(=N)N)NC(=O)[C@@H](Cc2ccccc2)NC(=O)[C@H](CCC(N)=O)NC1=O [compound 151, Ac-Arg-cyclo(Lys-Gln- D-Phe-Arg-Trp-Asp)- NH2] (HELM PEPTIDE1{[ac].R.K.Q.[dF].R.W.D.[am]}$PEPTIDE1,PEPTIDE1,3:R3-8:R3$$$V2.0), the Ki is reported as 4 nM.
With CCCCC(=O)N[C@H]1CCC(=O)NCC[C@@H](C(=O)N[C@@H](Cc2c[nH]c3ccccc23)C(N)=O)NC(=O)[C@H](CCCNC(=N)N)NC(=O)[C@@H](Cc2ccccc2)NC(=O)[C@H](Cc2c[nH]cn2)NC1=O [compound 153, n-C4H9—CO-cyclo(Glu- His-D-Phe-Arg-Dab)- Trp-NH2] the Ki was 365 nM.
CC(=O)N[C@@H](CCCN)C(=O)N[C@H]1CCCNC(=O)CC[C@@H](C(N)=O)NC(=O)[C@H](Cc2c[nH]c3ccccc23)NC(=O)[C@H](CCCNC(=N)N)NC(=O)[C@@H](Cc2ccccc2)NC(=O)[C@H](CC(N)=O)NC1=O [compound 158, Ac-Orn-cyclo(Orn-Asn- D-Phe-Arg-Trp-Glu)- NH2] (HELM PEPTIDE1{[ac].[Orn].[Orn].N.[dF].R.W.E.[am]}$PEPTIDE1,PEPTIDE1,3:R3-8:R3$$$V2.0) gave a Ki of 50 nM.
